{"source": "patent US4673692A", "about": "“Diphenylmethylimine derivatives, their compositions and pharmaceutical uses” (Teikoku Hormone Mfg. Co., Ltd., priority 1984, dated 1987)", "key": {"[1]": {"experiment": "Pharmacological actions of previously disclosed compound"}, "[2]": {"system": "granuloma formation", "experiment": "Inhibitory effect on granuloma formation (filter paper implantation)", "type": "in vivo, Wistar strain male rats", "conditions": "Rattus norvegicus, po, 168 h; once a day for 7 days; p<0.001, n=7-8; read-out: dose significantly decreasing the dry weight of granuloma", "procedure": "Wistar strain male rats were used. Under anesthesia with hexobarbital-Na (100 mg/kg, i.p.), the hair of the back of each rat was removed. Filter paper pieces prepared in tablet form (Toyo Filter Paper, No. 85K, 9 mm diameter) sterilized under pressure were implanted subcutaneously on the left and right sides of the back, and oily procaine penicillin G (a product of Banyu Pharmaceutical Co., Ltd.; 300,000 units/ml) was intramuscularly injected in an amount of 0.25 ml.\nAfter the implantation of the filter paper pieces, the test compound was orally administered once a day for 7 consecutive days including the day of implantation. On the day next to the day of the final administration, the filter paper pieces and granuloma formed around them were excised, and dried at about 60° C. for 24 hours. Their weight was measured. The weight of the filter paper pieces was subtracted, and the balance was defined as the dry amount of glanuloma."}, "[3]": {"system": "adjuvant-induced arthritis", "experiment": "Preventive effect on adjuvant-induced arthritis", "type": "in vivo, Sprague-Dawley strain female rats", "procedure": "Sprague-Dawley strain female rats, 6 weeks old, were used. Killed and dried M. butyricum (Difco) were suspended (6 mg/ml) in light liquid paraffin, and the suspension was sterilized under pressure to form Freund's complete adjuvant. 0.1 ml of the Freund's complete adjuvant was injected subcutaneously into the right hind paws of the animals to induce arthritis. After the injection of the Freund's complete adjuvant, the test compound was orally administered once a day for 21 consecutive days including the day of injection. The volumes of the left and right hind paws were measured by using the device devised by Fujihira [Eiichi Fujihira: Oyo Yakuri 5, 169-182 (1971)], and the increases in volume from before the injection of the adjuvant was measured and used as an index of swelling. Changes in swelling after the stopping of drug administration were also examined. The animals were used in groups each consisting of 10 members."}, "[4]": {"system": "stomach", "experiment": "Ulcerogenic activity", "type": "in vivo, male Wistar rats", "conditions": "300 mg/kg, p.o.; 4 hours after dosing; fasted rats", "procedure": "The test compound was orally administered by the same way as in the test on anti-inflammatory activity to male Wistar rats weighing 120 to 150 g which had been fasted for 24 hours. Four hours later, they were killed with ether."}, "[5]": {"system": "cyclooxygenase", "experiment": "Cyclooxygenase inhibiting action (formation of HHT) in white blood cells from rat pleural exudate", "type": "cell-based", "conditions": "14C arachidonic acid, A23187, 2 minutes, read-out: concentration inhibiting 50% of the formation of HHT", "procedure": "(§1) The actions of the compounds of this invention to inhibit 5-lipoxygenase and cyclooxygenase activities were measured in accordance with the method of Siegel et al. [Prostaglandins, Vol. 21, page 123 (1981)].\n(§2) The exudate was extracted from the pleural cavity of a rat with carrageenan-induced pleurisy. White blood cells from the exudate were suspended in 50 mM Tris-HCl buffer (pH 7.4) containing 100 mM sodium chloride and 1 mM calcium chloride. To a fixed amount of the white blood cell suspension were added a test compound, ^14 C arachidonic acid and a calcium ionophore (A23187), and the mixture was incubated for 2 minutes. […] The radioactivity of each of the fractions was measured by a liquid scintillation counter, and the percentage of the radioactivity of each fraction based on the total radioactivity was calculated (the ratio of formation). The inhibition ratio of the test compound against the synthesis ability of each fraction was determined by using the ratio of formation as an index.\n(§3) The lipoxygenase activity was determined by using the formation of 5S-hydroxy-6,8,11,14-eicosatetraenoic acid (5-HETE) and 5S,12R-dihydroxy-6,8,10,14-eicosatetraenoic acid (5,12-diHETE) as indices. The cyclooxygenase activity was determined by using the formation of 12-hydroxyheptadecatrienoic acid (HHT) as an index. […]"}, "[6]": {"system": "carrageenan paw edema", "experiment": "Anti-inflammatory activity: carrageenan-induced hind paw edema", "type": "in vivo, Male Wistar rats", "conditions": "10 mg/kg, p.o.; carrageenan 1 h after dosing, volume measured 3 h later; 5 rats per group", "procedure": "Male Wistar rats weighing 120 to 150 g which had been fasted for 24 hours were used in groups each consisting of 5 rats. In each group, the volumes of the right hind paw were measured by a volume differential meter (made by Ugo Basile Company), and each of the test compounds was suspended in an aqueous solution of 0.5% of carboxymethyl cellulose and 2.0% of Tween 80, and administered orally through a tube. After one hour from the administration, […] suspension of carrageenan in distilled water was subcutaneously injected into the plantar tissues of the right hind paw. Three hours later, the volumes of the right hind paw were again measured. The increase in volume of the right hind paw of each rat in each group (the volume of edema) was measured. The percent edema inhibition was calculated in accordance with the following equation, and the results are shown in Tale 1."}, "[7]": {"molecular_target": "T1, 5-lipoxygenase (Rattus norvegicus, UniProt P12527)", "T1 construct": "endogenous in cells; host or cells: white blood cells from the pleural exudate of rats with carrageenan-induced pleurisy", "T1 sequence (P12527 1-673)": "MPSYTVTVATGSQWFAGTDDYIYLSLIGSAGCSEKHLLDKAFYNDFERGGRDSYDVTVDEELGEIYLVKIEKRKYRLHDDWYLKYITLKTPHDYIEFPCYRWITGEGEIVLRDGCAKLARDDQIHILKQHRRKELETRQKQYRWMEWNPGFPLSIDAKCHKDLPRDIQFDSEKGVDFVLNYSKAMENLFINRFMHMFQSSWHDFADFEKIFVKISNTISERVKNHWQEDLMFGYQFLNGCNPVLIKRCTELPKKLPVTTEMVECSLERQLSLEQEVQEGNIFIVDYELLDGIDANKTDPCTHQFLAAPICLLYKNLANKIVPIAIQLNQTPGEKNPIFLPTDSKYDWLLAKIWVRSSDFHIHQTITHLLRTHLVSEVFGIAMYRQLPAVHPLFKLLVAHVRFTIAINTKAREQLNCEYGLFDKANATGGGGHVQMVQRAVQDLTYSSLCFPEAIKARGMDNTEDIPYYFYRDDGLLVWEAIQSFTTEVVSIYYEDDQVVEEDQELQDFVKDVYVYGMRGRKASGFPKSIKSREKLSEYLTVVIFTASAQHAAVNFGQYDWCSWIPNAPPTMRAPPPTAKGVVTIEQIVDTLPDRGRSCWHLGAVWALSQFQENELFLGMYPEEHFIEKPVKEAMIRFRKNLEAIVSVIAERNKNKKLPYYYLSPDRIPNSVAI", "experiment": "5-lipoxygenase inhibiting action (formation of 5-HETE and 5,12-diHETE) in white blood cells from rat pleural exudate", "type": "cell-based", "conditions": "14C arachidonic acid, A23187, 2 minutes, read-out: concentration inhibiting 50% of the formation of 5-HETE", "procedure": "as §1, §2, §3"}}}
{"smiles": "CON=C(c1ccccc1)c1cc(C(C)(C)C)c(O)c(C(C)(C)C)c1", "values": [{"measurement": "pharmacological actions such as anti-inflammatory, analgesic or anti-rheumatic activity", "setting": "[1]", "result": "does not substantially show pharmacological actions"}]}
{"smiles": "CC(C)(C)c1cc(C(=NO)c2ccccc2)cc(C(C)(C)C)c1O", "note": "[A, 3,5-di-t-butyl-4-hydroxybenzophenone oxime]", "values": [{"measurement": "minimal effective dose", "setting": "[2]", "result": "≥ 3", "unit": "mg/kg"}, {"measurement": "minimal effective dose", "setting": "[3]; Rattus norvegicus, po, 504 h, once a day for 21 days, p<0.05, n=10, read-out: dose significantly inhibiting the development of adjuvant-induced arthritis", "result": "≥ 3", "unit": "mg/kg"}, {"measurement": "rebound phenomenon in swelling after the stopping of drug administration", "setting": "[3]; after 21 days of oral administration", "result": "No rebound phenomenon was noted"}, {"measurement": "gastric trouble", "setting": "[4]", "result": "no gastric trouble"}, {"measurement": "IC50", "setting": "[5]", "result": 1.25, "unit": "µM"}, {"measurement": "Percent inhibition (edema)", "setting": "[6]", "result": 26.7, "unit": "%"}, {"measurement": "IC50", "setting": "[7]", "result": 6.2, "unit": "µM"}]}
{"smiles": "CC(=O)ON=C(c1ccccc1)c1cc(C(C)(C)C)c(O)c(C(C)(C)C)c1", "note": "[B, 3,5-di-t-butyl-4-hydroxybenzophenone O-acetyloxime]", "values": [{"measurement": "Percent inhibition (edema)", "setting": "[6]", "result": 22.7, "unit": "%"}]}
{"smiles": "CCC(=O)ON=C(c1ccccc1)c1cc(C(C)(C)C)c(O)c(C(C)(C)C)c1", "note": "[C, 3,5-di-t-butyl-4-hydroxybenzophenone O-propionyloxime]", "values": [{"measurement": "Percent inhibition (edema)", "setting": "[6]", "result": 23.6, "unit": "%"}]}
{"smiles": "CC(C)(C)c1cc(C(=NN)c2ccccc2)cc(C(C)(C)C)c1O", "note": "[D, 3,5-di-t-butyl-4-hydroxybenzophenone hydrazone]", "values": [{"measurement": "Percent inhibition (edema)", "setting": "[6]", "result": 21.0, "unit": "%"}]}
